In PubChem BioAssay AID328 (DTP/NCI, 2004):
Values joined by “and” are separate entries in the source; they are usually repeats but may differ in a detail not shown here. Identical values can stand only once. Inconclusive results and toxic doses are left out.

Tested on: BDF1 mice, P388 leukemia ip, median survival T/C
Experiment: NCI In Vivo Anticancer Drug Screen. Data for tumor model P388 Leukemia (intraperitoneal) in B6D2F1 (BDF1) mice
Conditions: endpoint: median survival time, higher = longer survival
In short: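 Vehicle-dosed animals serve as the reference; survival of compound-dosed, tumour-implanted mice is divided by it.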

[1] = dose: 100.0 mg/kg/injection, schedule: Q04DX003 (ip), vehicle: saline
[2] = dose: 100.0 mg/kg/injection, schedule: Q01DX001 (ip), vehicle: saline with Tween-80
[3] = dose: 200.0 mg/kg/injection, schedule: Q01DX001 (ip), vehicle: saline with Tween-80
[4] = dose: 25.0 mg/kg/injection, schedule: Q01DX009 (ip), vehicle: saline with Tween-80
[5] = dose: 100.0 mg/kg/injection, schedule: Q01DX009 (ip), vehicle: saline
[6] = dose: 200.0 mg/kg/injection, schedule: Q01DX009 (ip), vehicle: saline
[7] = dose: 400.0 mg/kg/injection, schedule: Q01DX009 (ip), vehicle: saline
[8] = dose: 50.0 mg/kg/injection, schedule: Q01DX009 (ip), vehicle: saline with Tween-80

In the case of `CC1CN1P(=O)(N1CC=CCC1)N1CC1C` (stereo not given), the T/C (dose: 9.38 mg/kg/injection, schedule: Q01DX009 (ip), vehicle: saline) is reported as 112 % of control, the T/C (dose: 18.7 mg/kg/injection, schedule: Q01DX009 (ip), vehicle: saline) is reported as 116 % of control and the T/C (dose: 50.0 mg/kg/injection, schedule: Q01DX009 (ip), vehicle: saline) is reported as 162 % of control. For the same compound, the T/C (dose: 75.0 mg/kg/injection, schedule: Q01DX009 (ip), vehicle: saline) was 91 % of control and the T/C [1] was 107 % of control.
With `COc1cc(/C=N\N=C\c2ccc(O)c(OC)c2)ccc1O` the T/C [2] was 100 % of control, the T/C [3] was 104 % of control and the T/C (dose: 400.0 mg/kg/injection, schedule: Q01DX001 (ip), vehicle: saline with Tween-80) was 100 % of control.
For `C=C/C(C)=C/[C@H](C)C(=O)C[C@H](O)CC1CC(=O)NC(=O)C1`, the T/C (dose: 7.3 mg/kg/injection, schedule: Q01DX009 (ip), vehicle: saline with Tween-80) was 111 % of control, the T/C (dose: 11.0 mg/kg/injection, schedule: Q01DX009 (ip), vehicle: saline with Tween-80) was 121 % of control and the T/C (dose: 16.5 mg/kg/injection, schedule: Q01DX009 (ip), vehicle: saline with Tween-80) was 171 % of control. The T/C [4] was 123 % of control and 124 % of control, the T/C (dose: 37.5 mg/kg/injection, schedule: Q01DX009 (ip), vehicle: saline with Tween-80) was 152 % of control and the T/C (dose: 75.0 mg/kg/injection, schedule: Q01DX009 (ip), vehicle: saline with Tween-80) was 180 % of control.
In the case of `COc1cc(OC)c(NC(=S)Nc2cc(C)ccc2OC)cc1Cl`, the T/C (dose: 12.5 mg/kg/injection, schedule: Q01DX009 (ip), vehicle: DMSO) is reported as 97 % of control and the T/C (dose: 25.0 mg/kg/injection, schedule: Q01DX009 (ip), vehicle: DMSO) is reported as 93 % of control.
With `N#Cc1c(N)sc2c1CCCC2` the T/C [5] was 109 % of control, the T/C [6] was 109 % of control and the T/C [7] was 104 % of control.
In the case of `C=CCCCCC/C=C/CCCCCC`, the T/C (dose: 75.0 mg/kg/injection, schedule: Q01DX010 (ip), vehicle: saline with Tween-80) is reported as 90 % of control and the T/C (dose: 150.0 mg/kg/injection, schedule: Q01DX010 (ip), vehicle: saline with Tween-80) is reported as 122 % of control.
`Cc1ccc(NCCN2CCOCC2)c2c(=O)c3ccccc3sc12` was tested, and the T/C [5] was 90 % of control, the T/C [1] was 110 % of control and the T/C [6] was 109 % of control. The T/C (dose: 200.0 mg/kg/injection, schedule: Q04DX003 (ip), vehicle: saline) was 110 % of control, the T/C [7] was 122 % of control and the T/C (dose: 400.0 mg/kg/injection, schedule: Q04DX003 (ip), vehicle: saline) was 110 % of control.
With `COC(=O)CCCCCCCCC[CH2][Hg][Cl]` the T/C (dose: 6.25 mg/kg/injection, schedule: Q04DX003 (ip), vehicle: saline sonified) was 100 % of control, the T/C (dose: 12.5 mg/kg/injection, schedule: Q04DX003 (ip), vehicle: saline sonified) was 100 % of control and the T/C (dose: 25.0 mg/kg/injection, schedule: Q04DX003 (ip), vehicle: saline sonified) was 122 % of control.
`CC(c1ccccc1)C1N(c2ccccc2)CCN1c1ccccc1` (stereo not given) was tested, and the T/C (dose: 50.0 mg/kg/injection, schedule: Q04DX003 (ip), vehicle: Klucel (hydroxypropylcellulose) (HPC)) was 107 % of control, the T/C (dose: 100.0 mg/kg/injection, schedule: Q04DX003 (ip), vehicle: Klucel (hydroxypropylcellulose) (HPC)) was 96 % of control and the T/C (dose: 200.0 mg/kg/injection, schedule: Q04DX003 (ip), vehicle: Klucel (hydroxypropylcellulose) (HPC)) was 107 % of control. The T/C (dose: 400.0 mg/kg/injection, schedule: Q04DX003 (ip), vehicle: Klucel (hydroxypropylcellulose) (HPC)) was 111 % of control.
For `CCCCCOC(=O)c1ccc(OP(=O)(N(C)C)N(C)C)cc1`, the T/C [8] was 116 % of control and the T/C (dose: 100.0 mg/kg/injection, schedule: Q01DX009 (ip), vehicle: saline with Tween-80) was 100 % of control.
In the case of `O=C(c1ccccc1)C(c1ccccc1)C(O)(C(F)(F)F)C(F)(F)F` (stereo not given), the T/C [2] is reported as 100 % of control and the T/C [3] is reported as 95 % of control.
In the case of `CCOC(=O)C(CCSC(C)=O)SC(C)=O` (stereo not given), the T/C (dose: 6.25 mg/kg/injection, schedule: Q01DX009 (ip), vehicle: saline with Tween-80) is reported as 96 % of control, the T/C (dose: 12.5 mg/kg/injection, schedule: Q01DX009 (ip), vehicle: saline with Tween-80) is reported as 122 % of control and the T/C (dose: 12.5 mg/kg/injection, schedule: Q04DX003 (ip), vehicle: saline with Tween-80) is reported as 111 % of control. For the same compound, the T/C [4] was 114 % of control, the T/C (dose: 25.0 mg/kg/injection, schedule: Q04DX003 (ip), vehicle: saline with Tween-80) was 115 % of control and the T/C [8] was 104 % of control. The T/C (dose: 50.0 mg/kg/injection, schedule: Q04DX003 (ip), vehicle: saline with Tween-80) was 109 % of control and 111 % of control.
